Laboratory results reported in ChEMBL document CHEMBL3885881, “DrugMatrix”.

Organism: Rattus norvegicus
Test: DrugMatrix - Regimen: Daily Repeat
Type: toxicity, organism-based, Sprague-Dawley
Set-up: regimen Daily Repeat, gender Male, age 6-8 weeks
Conditions: in vivo, po, route oral GAVAGE, […]; for URIC ACID / ALANINE AMINOTRANSFERASE / ALBUMIN / ALKALINE PHOSPHATASE / ASPARTATE AMINOTRANSFERASE / BLOOD UREA NITROGEN / CARBON DIOXIDE / CHLORIDE / CHOLESTEROL / CREATINE PHOSPHOKINASE / CREATININE / GLUCOSE / LACTATE DEHYDROGENASE / LIPASE / PHOSPHORUS / POTASSIUM / SODIUM / TOTAL BILIRUBIN / TOTAL PROTEIN: tissue Plasma
[1] = 1 mg/kg, 120 h, tissue Blood, dose level Low, time 5 day
[2] = 1 mg/kg, 120 h, dose level Low, time 5 day
[3] = 2.75 mg/kg, 72 h, tissue Blood, dose level High, time 3 day
[4] = 2.75 mg/kg, 72 h, dose level High, time 3 day
[5] = 2.75 mg/kg, 120 h, tissue Blood, dose level High, time 5 day
[6] = 2.75 mg/kg, 120 h, dose level High, time 5 day

## C[C@H]1O[C@@H](O[C@H]2[C@@H](O)C[C@H](O[C@H]3[C@@H](O)C[C@H](O[C@H]4CC[C@@]5(C)[C@H](CC[C@@H]6[C@@H]5CC[C@]5(C)[C@@H](C7=CC(=O)OC7)CC[C@]65O)C4)O[C@@H]3C)O[C@@H]2C)C[C@H](O)[C@@H]1O [DIGITOXIN]
1 mg/kg, 72 h, dose level Low, time 3 day
  URIC ACID: 0.53 mg/dL
[1]
  ABSOLUTE BASOPHIL: 0 CELLS/uL
  ABSOLUTE EOSINOPHIL: 0 CELLS/uL
  ABSOLUTE LYMPHOCYTE: 9184 CELLS/uL
  ABSOLUTE MONOCYTE: 19 CELLS/uL
  ABSOLUTE SEGMENTED NEUTROPHIL: 697 CELLS/uL
  BASOPHIL: 0%
  EOSINOPHIL: 0%
  ERYTHROCYTE COUNT: 5.65 x10E6/uL
  HEMATOCRIT: 35.27%
  HEMOGLOBIN: 13.63 G/DL
  LEUKOCYTE COUNT: 9.9 x10E3/uL
  LYMPHOCYTE: 93%
  MEAN CORPUSCULAR HEMOGLOBIN: 24.2 pg
  MEAN CORPUSCULAR HEMOGLOBIN CONCENTRATION: 38.7 G/DL
  MEAN CORPUSCULAR VOLUME: 62.47 fL
  MONOCYTE: 0.33%
  NEUTROPHIL: 6.67%
  NUCLEATED RED BLOOD CELLS: 0 /100WBC
  PLATELET COUNT: 833 x10E3/uL
[2]
  ALANINE AMINOTRANSFERASE: 84.33 u/L
  ALBUMIN: 4.1 G/DL
  ALKALINE PHOSPHATASE: 531.67 u/L
  ASPARTATE AMINOTRANSFERASE: 83 u/L
  BLOOD UREA NITROGEN: 10.67 mg/dL
  CARBON DIOXIDE: 34.67 mmol/L
  CHLORIDE: 98.33 MEQ/L
  CHOLESTEROL: 76.67 mg/dL
  CREATINE PHOSPHOKINASE: 231.33 u/L
  CREATININE: 0.16 mg/dL
  GLUCOSE: 154 mg/dL
  LACTATE DEHYDROGENASE: 122.67 u/L
  LIPASE: 10 u/L
  PHOSPHORUS: 10.13 mg/dL
  POTASSIUM: 5.23 MEQ/L
  SODIUM: 142.43 MEQ/L
  TOTAL BILIRUBIN: 0.23 mg/dL
  TOTAL PROTEIN: 5.83 G/DL
  URIC ACID: 0.43 mg/dL
[3]
  ABSOLUTE BASOPHIL: 0 CELLS/uL
  ABSOLUTE EOSINOPHIL: 0 CELLS/uL
  ABSOLUTE LYMPHOCYTE: 10747 CELLS/uL
  ABSOLUTE MONOCYTE: 27.33 CELLS/uL
  ABSOLUTE SEGMENTED NEUTROPHIL: 592.33 CELLS/uL
  BASOPHIL: 0%
  EOSINOPHIL: 0%
  ERYTHROCYTE COUNT: 5.51 x10E6/uL
  HEMATOCRIT: 33.6%
  HEMOGLOBIN: 13.4 G/DL
  LEUKOCYTE COUNT: 11.37 x10E3/uL
  LYMPHOCYTE: 94.33%
  MEAN CORPUSCULAR HEMOGLOBIN: 24.33 pg
  MEAN CORPUSCULAR VOLUME: 61.03 fL
  MONOCYTE: 0.33%
  NEUTROPHIL: 5.33%
  NUCLEATED RED BLOOD CELLS: 0 /100WBC
  PLATELET COUNT: 448 x10E3/uL
[4]
  ALANINE AMINOTRANSFERASE: 73 u/L
  ALBUMIN: 3.8 G/DL
  ALKALINE PHOSPHATASE: 350.67 u/L
  ASPARTATE AMINOTRANSFERASE: 101.33 u/L
  BLOOD UREA NITROGEN: 11.67 mg/dL
  CARBON DIOXIDE: 23.33 mmol/L
  CHLORIDE: 96 MEQ/L
  CHOLESTEROL: 61.33 mg/dL
  CREATINE PHOSPHOKINASE: 274.33 u/L
  CREATININE: 0.13 mg/dL
  GLUCOSE: 147.33 mg/dL
  LACTATE DEHYDROGENASE: 153 u/L
  LIPASE: 10.67 u/L
  PHOSPHORUS: 9.03 mg/dL
  POTASSIUM: 5.47 MEQ/L
  SODIUM: 137.1 MEQ/L
  TOTAL BILIRUBIN: 0.2 mg/dL
  TOTAL PROTEIN: 5.33 G/DL
  URIC ACID: 0.67 mg/dL
[5]
  ABSOLUTE BASOPHIL: 0 CELLS/uL
  ABSOLUTE EOSINOPHIL: 0 CELLS/uL
  ABSOLUTE LYMPHOCYTE: 7671 CELLS/uL
  ABSOLUTE MONOCYTE: 21 CELLS/uL
  ABSOLUTE SEGMENTED NEUTROPHIL: 641.33 CELLS/uL
  BASOPHIL: 0%
  EOSINOPHIL: 0%
  ERYTHROCYTE COUNT: 5.28 x10E6/uL
  HEMATOCRIT: 33.33%
  HEMOGLOBIN: 12.97 G/DL
  LEUKOCYTE COUNT: 8.33 x10E3/uL
  LYMPHOCYTE: 92%
  MEAN CORPUSCULAR HEMOGLOBIN: 24.53 pg
  MEAN CORPUSCULAR VOLUME: 63 fL
  MONOCYTE: 0.33%
  NEUTROPHIL: 7.67%
  NUCLEATED RED BLOOD CELLS: 0.33 /100WBC
  PLATELET COUNT: 1052.33 x10E3/uL
[6]
  ALANINE AMINOTRANSFERASE: 67.67 u/L
  ALBUMIN: 4.03 G/DL
  ALKALINE PHOSPHATASE: 389.33 u/L
  ASPARTATE AMINOTRANSFERASE: 88.67 u/L
  BLOOD UREA NITROGEN: 14.67 mg/dL
  CARBON DIOXIDE: 35 mmol/L
  CHLORIDE: 99.67 MEQ/L
  CHOLESTEROL: 57.33 mg/dL
  CREATINE PHOSPHOKINASE: 199.67 u/L
  CREATININE: 0.15 mg/dL
  GLUCOSE: 156.67 mg/dL
  LACTATE DEHYDROGENASE: 157.67 u/L
  LIPASE: 9.67 u/L
  PHOSPHORUS: 10.33 mg/dL
  POTASSIUM: 5.37 MEQ/L
  SODIUM: 144.23 MEQ/L
  TOTAL BILIRUBIN: 0.17 mg/dL
  TOTAL PROTEIN: 5.67 G/DL
  URIC ACID: 0.5 mg/dL
